Earlier results, collected in patent US9414584B2, “Stabilized hypohalous acid solutions” (PURICORE, INC., priority 2011, dated 2016).
Where two headings read alike, the source gives them in different places.

Legend:
E. coli [1] = details: 2.6 ppm; dilute bacterial suspensions; about 5 minutes
E. coli [2] = test system: E. coli
Escherichia coli = Escherichia coli exposed to hypochlorous acid

Row | Structure (SMILES) | concentration required for 100% kill in 5 minutes (S. dysenteriae) [ppm] | growth inhibition of E. coli (E. coli [1]) [%] | concentration required for 100% kill in 5 minutes (E. coli [2]) [ppm] | time to lose viability (Escherichia coli) | concentration required for 100% kill in 5 minutes (S. typhosa) [ppm] | concentration required for 100% kill in 5 minutes (A. aerogenes) [ppm] | time for 25 mg/mL solution to reach 20 mg/mL of free residual chlorine (20° C., Arrhenius calculation from studies at 50° C. and 70° C.) [days] | loss of titrable chlorine (in the first 6 months) | loss of titrable chlorine (within a year)
1 | OCl [hypochlorous acid] | 0.05 | 100 | 0.03 | less than 100 ms | 0.06 | 0.08 | – | – | –
2 | OCl [sodium hypochlorite solution, sodium hypochlorite] | – | – | – | – | – | – | 166 | approximately 20% | up to 60%
